Experimental findings from patent publication US20240100063A1, “COMBINATION THERAPY OF PD-1 AXIS BINDING ANTAGONISTS AND LRRK2 INHITIBORS” (Hoffmann-La Roche Inc., priority 2020, published 2024) are described below.

Data set [1] has as its system MART-1 T Cells. In words: MART-1 T cell proliferation upon co-culture with pre-treated human cord blood derived dendritic cells. The class given is cell-based. To be noted: human MART-1 T cells primed by human cord blood derived dendritic cells, FIG. 4-F. The method, then: (§1) Cells were stained with anti-mouse H-2Kb/[…] antibody. […] F) FACS evaluation of human MART-1 T cell proliferation, upon co-culture with human cord blood derived dendritic cells pre-treated with the LRRK2 inhibitor LRRK2-IN-1. All the experiments were performed in triplicates.
(§2) Subsequently, we investigate whether the pre-treatment of freshly isolated mouse splenic dendritic cells with increasing concentrations of the compounds can enhance the OT-1 CD8a T cells activation upon co-culture. […] Finally, as for the genetic validation in DC2.4, we challenge the splenic derived dendritic cells treated with the different compounds in a killing assay were we measured the MC38 RFP-OVA cancer cell viability upon 6 days of co-culture with OT-1 CD8a T cells primed by mouse splenic dendritic cells pre-treated with the two LRRK2 inhibitors (FIG. 5-A).

In data set [2] the test system is DC2.4 SCR cells. In words: antigen cross-presentation assay on DC2.4 cells (FACS, anti-mouse H-2Kb/[…] antibody). Type of data set: cell-based. To be noted: overnight administration. The method, then:
as §1, §2

Data set [3] deals with MV3 cancer cells. In words: killing assay: MV3 viability upon co-culture with MART-1 T cells primed by pre-treated human cord blood derived dendritic cells. Type of data set: cell-based. To be noted: 6 days killing assay, increasing concentration, human setting.
Source text: (§3) A, E) Schematic representation of the killing assay experimental setup respectively in mouse and human setting. […] Data are normalized to DMSO treated dendritic cells co-cultured with CD8a T cells. F) Evaluation of MV3 cancer cells viability upon co-cultured with MART-1 T Cells primed by human cord blood derived dendritic cells pre-treated with the LRRK2 inhibitor LRRK2-IN-1. Data are normalized to MV3 cells co-cultured with T cells primed in the absence of MART1 peptide. All the experiments were performed in triplicates.
as §2

The subject of data set [4] is MC38 RFP-OVA cancer cells.
Source text: as §3, §2

Data set [5] relates to 403 non-mutated kinases. In words: KINOMEScan in vitro kinase selectivity assay. Particulars: for number of different kinases whose binding is inhibited by 90% or more: at 0.1 μM, 403 non-mutated kinases; for number of unrelated kinases inhibited to >90%: at lowest concentration to inhibit >90 LRRK2 (0.1 uM). Type of data set: binding, human. As for the experimental part:
FIG. 10: In vitro kinase selectivity test. […] As a reference, the pan-kinase inhibitor sunitinib was tested.
As a reference, the pan-kinase inhibitor sunitinib was tested.
Kinases other than LRRK2 are herein referred to as unrelated kinases. A selectivity score S can be determined to quantify selectivity, as shown in Example 8. In one embodiment, the selectivity score S(65) of the inhibitor (e.g. the LRRK2 inhibitor) is defined as the ratio of number of kinases inhibited by 65% of binding to their ligand as compared to binding to their ligand without the inhibitor divided by the number of kinases tested. In one embodiment, the selectivity score S(90) of the inhibitor (e.g. the LRRK2 inhibitor) is defined as the ratio of number of kinases inhibited by 90% of binding to their ligand as compared to binding to their ligand without the inhibitor divided by the number of kinases tested. In one embodiment, the selectivity score S(99) of the inhibitor (e.g. the LRRK2 inhibitor) is defined as the ratio of number of kinases inhibited by 99% of binding to their ligand as compared to binding to their ligand without the inhibitor divided by the number of kinases tested. In one embodiment, the selectivity score S is determined for a specified concentration (e.g., 0.1 μM, 1 μM, or 10 μM) of the inhibitor (e.g. the LRRK2 inhibitor). Kinase—ligand binding (and inhibition thereof) can be measured using assays as known in the art and hereinbefore described and as described in Example 8.
(§4) The in vitro kinase selectivity for the tested compounds were determined by running a KINOMEScan® (DiscoverX, CA, USA). […] Selectivity scores S(65), S(90) and S (99) in FIG. 11 are calculated as the ratio of number of non-mutated kinases inhibited by 65%, 90 or 99% divided by the total number of non-mutated kinases tested.

Data set [6] deals with MC-38 tumor cells. In words: in vivo tumor growth, immuno-deficient NSG mice engrafted with MC-38 tumor cells. Also noted: species or system mouse. As for the experimental part: (§5) The experiment was carried out with 6-8 weeks female NSG mice from Jackson Laboratory. All procedures described in this study have been reviewed and approved by the local ethic committee (CELEAG) and validated by the French Ministry of Research. Mice was hosted in TCS BSL-2 facility by groups of 5 individuals. Mice were allowed to acclimate to the environment for 5 days prior to the beginning of the experiment. During the efficacy study, mice were monitored daily for unexpected signs of distress. Body weight was monitored 3 times a week. Mice with a cumulative clinical score or with a body weight loss >25% were sacrificed.
Mice were injected subcutaneously with 0.5×10^6 MC-38 tumor cells in 50% Matrigel. Tumor cell engraftment was defined as day zero. At day 9, mice were randomized into 2 groups of 12 mice each, according to the tumor volume. Treatments were initiated at day 10, when the average tumor volume reached ˜150 mm3 as follows: • Group 1: vehicle, dose 200 μL twice per day per os • Group 2: GNE-7915: dose 300 mg/kg per os administration twice per day.
GNE-7915 (cat. num. HY-18163 from MedChemExpress). LRRK2 inhibitor was administered as free base suspensions in vehicle [1% (w/v) Avicel RC-591 and 0.2% (v/v) polysorbate 80 (Tween 80) in reverse osmosis water].
The aim of this study was to address the in vivo effect on tumor progression of LRRK2 kinase inhibition by using the LRRK2 inhibitor GNE-7915, in immuno-deficient mice engrafted with MC-38 tumor cells. NSG mice were injected subcutaneously with 0.5×10^6 MC-38 tumor cells. Tumor cell engraftment was defined as day zero. At day 9, mice were randomized into 2 groups.
Mice were injected subcutaneously with 0.5×10^6 MC-38 tumor cells in 50% Matrigel. Tumor cell engraftment was defined as day zero. At day 9, mice were randomized into 2 groups of 12 mice each, according to the tumor volume.
PFE-360 (cat. num. HY-120085 from MedChemExpress). […] LRRK2 inhibitors were administered as free base suspensions in vehicle [1% (w/v) Avicel RC-591 and 0.2% (v/v) polysorbate 80 (Tween 80) in reverse osmosis water]. […]

Data set [7] deals with MC-38 tumor cells. In words: in vivo tumor growth, immunocompetent C57BL/6 mice engrafted with MC-38 tumor cells. To be noted: anti-PD-L1 10 mg/kg i.v. once then 5 mg/kg i.p. twice per week; for MC-38 tumor growth in comparison with vehicle treated mice: PFE-360 7.5 mg/kg, Mli-2 10 mg/kg per os twice per day, day zero to day 28. The method, then: as §5, with “C57BL/6” for “NSG”, “Janvier Labs.” for “Jackson Laboratory.”
Mice were injected subcutaneously with 0.5×10^6 MC-38 tumor cells in 50% Matrigel. Tumor cell engraftment was defined as day zero. At day 8, mice were randomized into 4 groups of 10 mice each, according to the tumor volume. Treatments were initiated at day 9, when the average tumor volume reached ˜150 mm3 as follows: • Group 1: vehicle, dose 200 μL twice per day per os, twice per week intraperitoneal and intravenously once at day 8 • Group 2: 7915: dose 300 mg/kg per os administration twice per day. • Group 3: anti PD-L1 (clone 6E11, atezolizumab mouse surrogate): dose 10 mg/kg intravenous injection once at day 8 and dose 5 mg/kg intraperitoneal injection twice per week. • Group 4: 7915+anti-PD-L1 (clone 6E11, atezolizumab mouse surrogate): dose 300 mg/kg per os injection twice per day. Anti PD-L1: dose 10 mg/kg intravenous injection once at day 8 and dose 5 mg/kg intraperitoneal injection twice per week.
7915 (cat. num. HY-18163 from MedChemExpress). LRRK2 inhibitor was administered as free base suspensions in vehicle [1% (w/v) Avicel RC-591 and 0.2% (v/v) polysorbate 80 (Tween 80) in reverse osmosis water].
The aim of this study was to address the in vivo effect on tumor progression of LRRK2 kinase inhibition by using the LRRK2 inhibitor 7915, alone or in combination with anti-PD-L1, in immunocompetent mice engrafted with MC-38 tumor cells. C57BL/6 mice were injected subcutaneously with 0.5×10^6 MC-38 tumor cells. Tumor cell engraftment was defined as day zero. […]

For data set [8], the target named is LRRK2 (Homo sapiens, UniProt Q5S007). In words: KINOMEScan in vitro kinase selectivity assay, LRRK2. Type of data set: binding. As for the experimental part: as §4
Data set [9] has as its system OT-1 CD8a T cells. In words: OT-1 CD8a T cell proliferation upon co-culture with dendritic cells pre-treated with LRRK2 inhibitors. Type of data set: cell-based, mouse. As for the experimental part: as §1, §2
[10] abbreviates: PFE-360 7.5 mg/kg, Mli-2 10 mg/kg per os twice per day, day zero to day 24.

Entries after “also recorded” stand apart in the source; their conditions may differ.

LRRK2, sequence (Q5S007 whole entry): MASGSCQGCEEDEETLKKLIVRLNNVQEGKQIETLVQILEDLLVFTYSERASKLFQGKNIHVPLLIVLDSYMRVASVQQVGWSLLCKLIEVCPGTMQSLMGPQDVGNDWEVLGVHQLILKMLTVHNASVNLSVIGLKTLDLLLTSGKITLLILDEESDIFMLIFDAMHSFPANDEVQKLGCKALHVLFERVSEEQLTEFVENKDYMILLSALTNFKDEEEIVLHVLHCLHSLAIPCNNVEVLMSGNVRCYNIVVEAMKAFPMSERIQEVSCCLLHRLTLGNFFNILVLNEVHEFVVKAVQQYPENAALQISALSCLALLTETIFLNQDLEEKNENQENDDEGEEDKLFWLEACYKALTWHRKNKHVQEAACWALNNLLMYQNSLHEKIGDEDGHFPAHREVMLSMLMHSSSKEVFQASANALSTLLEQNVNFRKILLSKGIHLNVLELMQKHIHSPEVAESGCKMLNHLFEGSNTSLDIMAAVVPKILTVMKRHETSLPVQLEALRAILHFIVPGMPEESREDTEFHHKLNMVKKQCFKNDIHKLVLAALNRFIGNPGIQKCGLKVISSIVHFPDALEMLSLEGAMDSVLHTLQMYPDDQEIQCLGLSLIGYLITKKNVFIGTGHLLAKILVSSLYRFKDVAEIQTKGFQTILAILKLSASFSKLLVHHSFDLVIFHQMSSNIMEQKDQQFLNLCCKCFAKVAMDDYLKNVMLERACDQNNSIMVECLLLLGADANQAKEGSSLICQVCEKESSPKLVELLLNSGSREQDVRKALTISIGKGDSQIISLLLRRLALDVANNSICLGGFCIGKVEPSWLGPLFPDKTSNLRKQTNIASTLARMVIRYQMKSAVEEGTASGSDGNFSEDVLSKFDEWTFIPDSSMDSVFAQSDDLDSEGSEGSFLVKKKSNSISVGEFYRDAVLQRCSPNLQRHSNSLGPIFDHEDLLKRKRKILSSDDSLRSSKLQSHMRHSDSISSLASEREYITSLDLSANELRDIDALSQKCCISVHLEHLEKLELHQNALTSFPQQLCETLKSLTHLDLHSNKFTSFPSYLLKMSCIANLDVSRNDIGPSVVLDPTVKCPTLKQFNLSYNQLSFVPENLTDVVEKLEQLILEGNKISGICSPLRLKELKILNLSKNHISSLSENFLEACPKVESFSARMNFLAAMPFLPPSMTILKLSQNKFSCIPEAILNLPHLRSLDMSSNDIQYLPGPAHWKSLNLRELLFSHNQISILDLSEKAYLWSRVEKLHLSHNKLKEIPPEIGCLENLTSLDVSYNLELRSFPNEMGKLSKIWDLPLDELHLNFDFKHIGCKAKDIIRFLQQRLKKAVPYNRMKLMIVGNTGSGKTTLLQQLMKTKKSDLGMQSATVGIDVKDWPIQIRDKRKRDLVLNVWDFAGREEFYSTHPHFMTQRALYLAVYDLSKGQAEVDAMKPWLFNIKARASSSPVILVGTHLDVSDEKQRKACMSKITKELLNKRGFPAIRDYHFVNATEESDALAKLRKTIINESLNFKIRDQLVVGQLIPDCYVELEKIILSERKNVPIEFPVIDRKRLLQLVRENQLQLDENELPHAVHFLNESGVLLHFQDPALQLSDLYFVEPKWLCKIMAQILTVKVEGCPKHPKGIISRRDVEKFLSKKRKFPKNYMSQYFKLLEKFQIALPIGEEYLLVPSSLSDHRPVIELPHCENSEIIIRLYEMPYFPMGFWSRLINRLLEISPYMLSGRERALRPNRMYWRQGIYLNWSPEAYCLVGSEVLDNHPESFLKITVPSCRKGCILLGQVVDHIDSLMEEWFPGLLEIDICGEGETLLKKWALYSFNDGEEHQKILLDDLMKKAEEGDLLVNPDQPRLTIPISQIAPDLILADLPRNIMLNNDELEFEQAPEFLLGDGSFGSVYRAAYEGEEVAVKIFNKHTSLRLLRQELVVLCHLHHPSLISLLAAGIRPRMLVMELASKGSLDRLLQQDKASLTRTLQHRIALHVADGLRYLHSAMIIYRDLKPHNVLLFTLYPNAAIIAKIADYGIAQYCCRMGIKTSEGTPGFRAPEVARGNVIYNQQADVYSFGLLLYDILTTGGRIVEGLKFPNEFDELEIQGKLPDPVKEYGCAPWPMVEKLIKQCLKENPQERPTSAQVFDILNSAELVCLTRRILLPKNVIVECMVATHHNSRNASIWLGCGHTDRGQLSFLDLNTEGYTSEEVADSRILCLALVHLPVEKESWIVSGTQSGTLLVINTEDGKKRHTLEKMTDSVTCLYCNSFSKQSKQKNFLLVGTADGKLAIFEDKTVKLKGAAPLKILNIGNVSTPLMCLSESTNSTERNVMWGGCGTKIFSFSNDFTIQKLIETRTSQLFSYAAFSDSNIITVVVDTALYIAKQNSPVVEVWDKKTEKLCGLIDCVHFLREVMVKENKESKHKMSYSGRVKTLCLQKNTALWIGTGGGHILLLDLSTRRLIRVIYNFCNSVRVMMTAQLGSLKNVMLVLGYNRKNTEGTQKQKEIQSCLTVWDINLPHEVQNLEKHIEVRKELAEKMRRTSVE

Turning to `COc1cc(C(=O)N2CCC(N3CCN(C)CC3)CC2)ccc1Nc1ncc2c(n1)N(C)c1ccccc1C(=O)N2C` [LRRK2-IN-1, 2-[2-methoxy-4-[4-(4-methylpiperazin-1-yl)piperidine-1-carbonyl]anilino]-5,11-dimethyl-pyrimido[4,5-b][1,4]benzodiazepin-6-one], the “cross-presentation mediated T cell proliferation” value in data set [1] is recorded as “already at lowest concentration a stable increase; also recorded: increased the T cells proliferation”. The “concentration showing an effect on antigen cross-presentation” value in data set [2] stood at 1 µM. Also, the “MV3 cancer cell viability” value in data set [3] is on record as “dose dependent reduction of MV3 cancer cell viability”.
Turning to `C[C@@H]1CN(c2cc(-c3n[nH]c4ccc(OC5(C)CC5)cc34)ncn2)C[C@H](C)O1` [MLi-2, cis-2,6-dimethyl-4-[6-[5-(1-methylcyclopropoxy)-1H-indazol-3-yl]pyrimidin-4-yl]morpholine], in [4], the “T cell mediated cytotoxicity (MC38 RFP-OVA cancer cell viability)” value (“T cell mediated cytotoxicity” for short) was “increased T cell mediated cytotoxicity”. For the same compound, the “number of different kinases whose binding is inhibited by 90% or more” value in data set [5] was “three”. In addition, in data set [5], the “number of unrelated kinases inhibited to >90%” value is 3. In addition, the “MC-38 tumor growth in comparison with vehicle treated mice” value (shortened to “MC-38 tumor growth in comparison”) in data set [6] (setting [10]) is “not modifying tumor growth; also recorded: not impacting MC-38 tumor growth”; in data set [7], “inducing tumor growth inhibition; also recorded: significantly decrease MC-38 tumor growth”.
Compound `Cn1cc(-c2c[nH]c3ncnc(N4CCOCC4)c23)cc1C#N` [PFE-360, 1-methyl-4-(4-morpholino-7H-pyrrolo[2,3-d]pyrimidin-5-yl)pyrrole-2-carbonitrile] showed an inhibition at 0.1 µM in data set [8] of 100%. Also, in data set [5], the “number of different kinases whose binding is inhibited by 90% or more” value worked out at 9 and the “number of unrelated kinases inhibited to >90%” value stood at 9. Besides, in [5] (at all concentration on average), the “fold more selective than sunitinib” value is approximately 2 fold. Also, in [6] (setting [10]), the “MC-38 tumor growth in comparison” value was “not modifying tumor growth; also recorded: not impacting MC-38 tumor growth”. For the same compound, the “MC-38 tumor growth in comparison” value in data set [7] is “inducing tumor growth inhibition; also recorded: significantly decrease MC-38 tumor growth”.
For the compound `CCNc1nc(Nc2cc(F)c(C(=O)N3CCOCC3)cc2OC)ncc1C(F)(F)F` [compound 7915, [4-[[4-(ethylamino)-5-(trifluoromethyl)pyrimidin-2-yl]amino]-2-fluoro-5-methoxy-phenyl]-morpholino-methanone], the “T cell mediated cytotoxicity” value in [4] is given as “increased T cell mediated cytotoxicity”. In data set [6] (GNE-7915 300 mg/kg per os twice per day, day zero to day 21, 300 mg/kg), the “MC-38 tumor growth in comparison” value was “not modifying tumor growth; also recorded: not impacting MC-38 tumor growth”. Further, the tumor growth inhibition in data set [7] (MC-38, vs vehicle, 7915 300 mg/kg per os twice per day, day zero to day 15) was found to be 82%. In data set [9] (murine OT1 CD8a T cells, FIG. 4-H), the “cross-presentation mediated T cell proliferation” value is “already at lowest concentration a stable increase”.
Turning to `CNc1nc(Nc2cnn(C3CCN(C4COC4)CC3F)c2Cl)ncc1C(F)(F)F` (stereo not drawn) [compound 9605, N2-[5-chloro-1-[3-fluoro-1-(oxetan-3-yl)-4-piperidyl]pyrazol-4-yl]-N4-methyl-5-(trifluoromethyl)pyrimidine-2,4-diamine], in data set [4], the “T cell mediated cytotoxicity” value is given as “increased T cell mediated cytotoxicity”. In addition, the “concentration at which increased T cell proliferation is shown” value in [9] (OT-1 CD8a T cells co-cultured with pre-treated mouse splenic dendritic cells) is on record as not below 100 nM.
Compound `CCN(CC)CCNC(=O)c1c(C)[nH]c(/C=C2\C(=O)Nc3ccc(F)cc32)c1C` [sunitinib] returned an inhibition at 0.1 µM in [8] of less than 50%.
